Here are results for 29 compounds from patent publication US20070004721A1, “Pteridine derivatives for the treatment of septic shock and tnf-a-related diseases” (priority 2003, published 2007).

For test [1], the system named is human IL-1β. Put plainly: IL-1β assay: suppression of IL-1β production by LPS-stimulated PBMC (sandwich ELISA). The test is classed as cell-based. The conditions noted are these: LPS 1 μg/ml, 72 hours at 37° C. Here is the method: (§1) Peripheral blood mononuclear cells (herein referred as PBMC), in response to stimulation by lipopolysaccharide (LPS), a gram-negative bacterial endotoxin, produce various […], in particular human TNF-α and IL-1β. The inhibition of the activation of PBMC can be measured by the level of suppression of the production of TNF-α or IL-1β by PBMC in response to stimulation by LPS.
(§2) Such inhibition measurement was performed as follows: PBMC were isolated from heparinized peripheral blood (Buffy coat) by density gradient centrifugation. LPS is then added to the PMBC suspension in complete medium (10^6 cells/ml) at a final concentration of 1 μg/ml. The pteridine derivative to be tested was added at different dilution levels, and the cells were incubated at 37° C. for 72 hours. The supernatants were collected, and TNF-α or IL-1β concentrations were measured with respectively an anti-TNF antibody or an anti-IL-1β antibody in a sandwich ELISA (Duo Set ELISA human TNFα, commercially available from R&D Systems, United Kingdom). The colorimetric reading of the ELISA was measured by a Multiskan RC plate reader (commercially available from ThermoLabsystems, Finland) at 450 nm (reference wavelength: 690 nm). Data analysis was performed with Ascent software 2.6. (also from ThermoLabsystems, Finland): a standard curve (recombinant human TNFα) was drawn and the amount (pg/ml) of each sample on the standard curve was determined.
(§3) The % inhibition of human TNF-α production or human IL-1β was calculated using the formula: % inhibition=[…] wherein: min.: pg/ml in culture medium without test compound, and
(§4) max.: pg/ml in culture medium+LPS without test compound.
A general note: An ELISA detects its analyte on a solid surface through an enzyme-linked reagent.

For test [2], the system named is C3H mice. Kind of test: Protection against lethal toxic shock (LPS injection). Format: in vivo.
Test [3] concerns C57BL/6 male mice. Put plainly: Protection against a lethal dose of TNF-α (TNF-α induced shock). Format: in vivo. Particulars: for Animals surviving 48 hours after TNF-α administration: TNF-α 10 μg i.v., 20 mg/kg/day i.p. three injections, total animals 9, 6, 6. The protocol: A model of TNF-α induced shock in C57BL/6 male mice was performed as follows. Animals from the control group received an Intravenous administration of a lethal dose of TNF-α (10 μg) in the tail. Animals from the test group received three intraperitoneous injections of a pteridine derivative (20 mg/kg/day) respectively 48 hours, 24 hours and immediately before an intravenous injection of TNF-α (10 μg).

The subject of test [4] is melanoma (B16BL/6) in C57BL6 (B6) mice. Put plainly: Reduction of tumor growth while inhibiting TNF-α toxicity, melanoma tumor model. The test is classed as in vivo. Here is the method: A tumor model of melanoma (B16BL/6) in C57BL6 (B6) mice was performed as follows. On day 1, a group of 18 B6 mice were injected with 1.5×10^6 B16BL/6 melanosarcoma cells. The group was further divided into the following subgroups 3 days after the tumor cells injection: • a first control sub-group of 6 mice received vehicle (physiological solution) 3 times a week starting on day 3; • a second control subgroup of 5 mice received TNF-α (15 μg) on day 5 and, for surviving animals, TNF-α was again administered 3 times a week for 2 weeks; • a test sub-group of 7 mice intraperitoneously received the pteridine derivative of example 24 at a dose of 20 mg/kg on each of days 3, 4 and 5; the latter third injection on day 5 occurred 2 hours before a first TNF-α intravenous injection (15 μg). Then the test compound (20 mg/kg/day) and TNF-α (15 μg/day) were administered each subcutaneously 3 times a week for 2 weeks.

The subject of test [5] is human TNF-α. Put plainly: TNF-α assay: suppression of TNF-α production by LPS-stimulated PBMC (sandwich ELISA). Format: cell-based. The conditions noted are these: LPS 1 μg/ml, 72 hours at 37° C. Here is the method: as §1, §2, §3, §4
[6] abbreviates: group of 16 C3H mice, 100 μg LPS i.p., 20 mg/kg/day i.p. for 2 days.

One may read the IC50 as the concentration that gives 50% inhibition. A higher IC50 goes with weaker potency. `COc1ccc(-c2cnc3nc(N)nc(N4CCOCC4)c3n2)cc1OC` [Example 24, 2-amino-4-morpholino-6-(3,4-dimethoxyphenyl)pteridine]: half-maximal inhibition in test [1] (Homo sapiens) (IC50) required 5.5 µM. In test [2] (setting [6]), the “animals permanently survived the challenge of a LPS lethal dose” value is recorded as 14 and the “animals showing a significantly prolonged survival” value was found to be 2. Moreover, the prolonged survival in test [2] (the 2 animals that did not survive permanently, controls die within 1-3 days) was found to be 5 days. For the same compound, the “Animals surviving 48 hours after TNF-α administration” value (“Animals surviving 48 hours” below) in test [3] stood at 7. Moreover, the body temperature in test [3] (followed for 48 hours after TNF-α 10 μg i.v., 20 mg/kg/day i.p. 48 h, 24 h and immediately before, control 28.2° C.) came to 30.1 °C. The “average tumor size (largest diameter multiplied by smallest diameter)” value in test [4] (after two weeks treatment together with TNF-α, first control group 439 mm^2) was determined as 144 mm^2. In test [4] (out of 7 tumor bearing mice, 20 mg/kg plus TNF-α 15 μg, second control group all died), the “animals of the test sub-group survived” value was 5.
Take `CC(C)Oc1nc(N)nc(N)c1N` [Example 59, 2,5,6-triamino-4-isopropoxy-pyrimidine]: the half-maximal inhibitory concentration (IC50) in test [5] is 8 µM.
Same read-out and setting: in the case of `CC(C)Oc1nc(N)nc2ncc(Cl)nc12` [Example 65, 2-amino-6-chloro-4-isopropoxypteridine] it was 9.1 µM; in that of `CCOc1nc(N)nc2ncc(-c3ccccc3OC)nc12` [Example 67, 2-amino-6-(o-methoxyphenyl)-4-ethoxy-pteridine], 10 µM; in that of `CCOc1nc(N)nc2ncc(-c3cccc(OC)c3)nc12` [Example 68, 2-amino-6-(m-methoxyphenyl)-4-ethoxy-pteridine], 10 µM.
The compound `CCOc1nc(N)nc2ncc(-c3cccs3)nc12` [Example 72, 2-amino-6-(2-thienyl)-4-ethoxy-pteridine] displayed a 50% inhibitory concentration (IC50) in test [5] of 8.5 µM.
On the same count and under the same terms, in the case of `CCOc1nc(N)nc2ncc(-c3ccc(F)cc3)nc12` [Example 77, 2-amino-6-(p-fluorophenyl)-4-ethoxy-pteridine] it was 8.1 µM; in that of `CCOc1nc(N)nc2ncc(-c3ccc(F)c(C)c3)nc12` [Example 80, 2-amino-6-(3-methyl-4-fluorophenyl)-4-ethoxy-pteridine], 6.8 µM; in that of `CCOc1nc(N)nc2ncc(-c3ccc(OC)c(OC)c3)nc12` [Example 83, 2-amino-6-(3,4-dimethoxyphenyl)-4-ethoxy-pteridine], 6.6 µM.
As to `Cc1ccc(-c2cnc3nc(N)nc(OC(C)C)c3n2)cc1C` [Example 85, 2-amino-6-(3,4-dimethylphenyl)-4-isopropoxypteridine], the IC50 in test [1] (Homo sapiens) is greater than 40 µM.
As for `CC(C)Oc1nc(N)nc2ncc(-c3ccc(F)c(Cl)c3)nc12` [Example 87, 2-amino-6-(3-chloro-4-fluorophenyl)-4-isopropoxypteridine], half-maximal inhibition in test [5] (IC50) was put at 7.5 µM.
Still for that read-out and setting: in the case of `CCOc1ccc(-c2cnc3nc(N)nc(OC(C)C)c3n2)cc1` [Example 92, 2-amino-6-(p-ethoxyphenyl)-4-isopropoxypteridine] it was 10 µM; in that of `CC(C)Oc1nc(N)nc2ncc(-c3ccsc3)nc12` [Example 94, 2-amino-6-(3-thienyl)-4-isopropoxypteridine], 7.6 µM; in that of `CC(=O)c1ccc(-c2cnc3nc(N)nc(OC(C)C)c3n2)cc1` [Example 97, 2-amino-6-(p-acetylphenyl)-4-isopropoxypteridine], 9.1 µM.
On to `COc1ccc(-c2cnc3nc(N)nc(OC(C)C)c3n2)cc1OC` [Example 98, 2-amino-6-(3,4-dimethoxyphenyl)-4-isopropoxypteridine], for which the IC50 is 3.5 µM in test [5] and greater than 40 µM in test [1] (Homo sapiens). In test [3], the “Animals surviving 48 hours” value is reported as 3.
`COc1ccc(-c2cnc3nc(N)nc(N4CC=CCC4)c3n2)cc1OC` [Example 119, 2-amino-4-(1,2,3,6-tetrahydropyridinyl)-6-(3,4-dimethoxyphenyl)pteridine] displayed an IC50 in test [1] of 15 µM. Besides, in test [3], the “Animals surviving 48 hours” value turned out to be 3.
Turning to `COc1ccc(-c2cnc3nc(NCc4cccs4)nc(N)c3n2)cc1OC` [Example 143, 2-(2-thienylmethylamino)-4-amino-6-(3,4-dimethoxyphenyl)pteridine], the IC50 in test [5] came to 10 µM.
In turn, `COc1ccc(-c2cnc3nc(NCc4ccccc4)nc(N)c3n2)cc1OC` [Example 145, 2-benzylamino-4-amino-6-(3,4-dimethoxyphenyl)pteridine] came in with a half-maximal inhibitory concentration (IC50) in test [5] of 9.3 µM.
Same read-out and setting: in the case of `Nc1nc(N2CCOCC2)c2nc(-c3ccc(NC(=O)COc4ccccc4)cc3)cnc2n1` [Example 160, 2-amino-4-morpholino-6-(4-phenoxyacetylaminophenyl)pteridine] it was 4.9 µM.
Compound `Nc1nc(N2CCOCC2)c2nc(-c3ccc(NC(=O)c4ccncc4)cc3)cnc2n1` [Example 166, 2-amino-4-morpholino-6-(4-isonicotinoylaminophenyl)pteridine] came in with a 50% inhibitory concentration (IC50) in test [5] of 4.4 µM.
On the same count and under the same terms, in the case of `Nc1nc(N2CCOCC2)c2nc(-c3cccc(NC(=O)c4ccccc4)c3)cnc2n1` [Example 171, 2-amino-4-morpholino-6-(3-benzoylaminophenyl)pteridine] it was 4.3 µM; in that of `Nc1nc(N2CCOCC2)c2nc(-c3cccc(NS(=O)(=O)c4ccccc4)c3)cnc2n1` [Example 172, 2-amino-4-morpholino-6-(3-benzensulfonylaminophenyl)pteridine], 0.5 µM.
On the same count and under the same terms, in the case of `Nc1nc(N2CCOCC2)c2nc(-c3cccc(NC(=O)c4ccncc4)c3)cnc2n1` [Example 174, 2-amino-4-morpholino-6-(3-isonicotinoylaminophenyl)pteridine] it was 7.3 µM.
Same read-out and setting: in the case of `Nc1nc(N2CCOCC2)c2nc(-c3cccc(NC(=O)C4CCCCC4)c3)cnc2n1` [Example 175, 2-amino-4-morpholino-6-(3-cyclohexanoylaminophenyl)pteridine] it was 5 µM.
Compound `Nc1nc(N2CCOCC2)c2nc(-c3cccc(NC(=O)COCc4ccccc4)c3)cnc2n1` [Example 179, 2-amino-4-morpholino-6-(3-benzyloxyacetylaminophenyl)pteridine] came in with a half-inhibitory concentration (IC50) in test [5] of 7.7 µM.
Still for that read-out and setting: in the case of `CCS(=O)(=O)Nc1cccc(-c2cnc3nc(N)nc(N4CCOCC4)c3n2)c1` [Example 180, 2-amino-4-morpholino-6-(3-ethylsulfonylaminophenyl)pteridine] it was 10 µM; in that of `CCOc1ccc(-c2cnc3nc(N)nc(N4CCOCC4)c3n2)cc1` [Example 186, 2-amino-4-morpholino-6-(4-ethoxyphenyl)pteridine], 10 µM.
Still for that read-out and setting: in the case of `CCCOc1ccc(-c2cnc3nc(N)nc(N4CCOCC4)c3n2)cc1` [Example 190, 2-amino-4-morpholino-6-(4-propoxy-phenyl)pteridine] it was 10 µM.
The same measure, in the same setting: in the case of `COCCOc1ccc(-c2cnc3nc(N)nc(N4CCOCC4)c3n2)cc1` [Example 193, 2-amino-4-morpholino-6-(4-(2-methoxyethoxy)-phenyl)pteridine] it was 7.2 µM.
